Here are results for three compounds from patent US10064867B2, “Hsp90 inhibitors” (Sloan-Kettering Institute for Cancer Research, priority 2011, dated 2018).

The structures appear in SMILES notation. Where two headings read alike, the source gives them in different places.

One data set addresses Hsp90. The experiment in a line: Hsp90 Binding Assay (fluorescence polarization, cy3B-GM displacement, SKBr3 lysate). More on the design: species or system human. Conditions: read-out: SKBr3 Binding Affinity. In general terms: Polarisation of emitted light reports the rotation of a fluorescent probe.
For another data set, the target named is hERG (Homo sapiens, UniProt Q12809). The data set is described as follows: hERG binding. The source says:
In interpreting these test results, it will be appreciated that binding to Hsp90 for activity in the treatment of cancer or neurodegenerative disorders is desirable. In contrast, it is generally undesirable to have binding to hERG since binding to hERG can result in undesirable cardiac side effects. Therefore, having a low value for binding to Hsp90 and a high value for binding to hERG is desirable, bearing in mind that the units for the two measurement are different.

The mark [1] stands for this setting: human cancer cell lysate (SKBr3), cy3B-GM displacement, 4° C., 24 h.

hERG, sequence (Q12809 whole entry): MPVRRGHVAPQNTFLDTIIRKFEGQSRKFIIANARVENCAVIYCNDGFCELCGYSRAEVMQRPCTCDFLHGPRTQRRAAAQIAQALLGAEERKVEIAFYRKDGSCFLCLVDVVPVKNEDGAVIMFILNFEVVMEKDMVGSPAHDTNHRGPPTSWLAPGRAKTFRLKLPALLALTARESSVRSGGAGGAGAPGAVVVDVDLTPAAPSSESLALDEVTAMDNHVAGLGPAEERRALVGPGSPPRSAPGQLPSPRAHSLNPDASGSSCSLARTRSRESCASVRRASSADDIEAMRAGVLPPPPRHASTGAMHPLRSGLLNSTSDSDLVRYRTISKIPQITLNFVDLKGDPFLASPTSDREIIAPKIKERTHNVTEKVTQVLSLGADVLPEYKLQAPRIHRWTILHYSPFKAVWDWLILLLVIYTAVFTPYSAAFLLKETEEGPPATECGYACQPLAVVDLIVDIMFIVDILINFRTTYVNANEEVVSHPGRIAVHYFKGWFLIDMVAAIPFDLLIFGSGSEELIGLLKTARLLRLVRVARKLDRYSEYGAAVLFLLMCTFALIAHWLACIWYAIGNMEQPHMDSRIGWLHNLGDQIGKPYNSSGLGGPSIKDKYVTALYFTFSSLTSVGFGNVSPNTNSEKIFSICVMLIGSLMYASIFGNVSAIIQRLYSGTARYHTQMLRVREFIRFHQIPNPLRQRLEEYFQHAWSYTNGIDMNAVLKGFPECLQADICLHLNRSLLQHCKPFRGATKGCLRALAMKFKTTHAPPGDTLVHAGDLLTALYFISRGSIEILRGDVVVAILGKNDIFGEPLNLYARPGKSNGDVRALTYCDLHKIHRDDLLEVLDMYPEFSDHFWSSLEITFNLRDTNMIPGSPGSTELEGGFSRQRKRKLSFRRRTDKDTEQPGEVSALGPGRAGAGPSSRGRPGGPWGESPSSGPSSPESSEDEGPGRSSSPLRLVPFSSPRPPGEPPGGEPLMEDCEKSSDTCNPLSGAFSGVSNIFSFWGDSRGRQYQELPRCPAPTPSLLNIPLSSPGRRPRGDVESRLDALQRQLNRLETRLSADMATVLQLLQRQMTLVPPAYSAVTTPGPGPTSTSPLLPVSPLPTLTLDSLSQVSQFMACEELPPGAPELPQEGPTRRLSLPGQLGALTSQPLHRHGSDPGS

On to `CN(C)c1cc2c(cc1Sc1nc3c(N)ncnc3n1CCCNC(C)(C)C)OCO2` [DZ4-135, 9-(3-(tert-Butylamino)propyl)-8-(6-(dimethylamino)benzo[d][1,3]dioxol-5-ylthio)-9H-purin-6-amine], for which the IC50 at Hsp90 (setting [1]) turned out to be 45.4 nM. On hERG, the hERG binding turned out to be 14.0 µM.

In the case of `CC(C)NCCCn1c(Sc2cc3c(cc2N(C)C)OCO3)nc2c(N)ncnc21` [DZ4-134, 8-(6-(Dimethylamino)benzo[d][1,3]dioxol-5-ylthio)-9-(3-(isopropylamine)propyl)-9H-purin-6-amine], the IC50 at Hsp90 (setting [1]) was 55.3 nM. In addition, the hERG binding at hERG was 11.0 µM.

Take `CC(C)NCCCn1c(Sc2cc3c(cc2I)OCO3)nc2c(N)ncnc21` [PU-H71, reference compound]: the IC50 on Hsp90 is […]. Also, on hERG, the hERG binding is 1 µM.
